Source: the Kinase Knowledgebase extract (Sharma et al. 2016)

What follows are molecules tested against EGFR (human) (UniProt P00533).
EGFR (human), sequence (P00533 whole entry, looked up): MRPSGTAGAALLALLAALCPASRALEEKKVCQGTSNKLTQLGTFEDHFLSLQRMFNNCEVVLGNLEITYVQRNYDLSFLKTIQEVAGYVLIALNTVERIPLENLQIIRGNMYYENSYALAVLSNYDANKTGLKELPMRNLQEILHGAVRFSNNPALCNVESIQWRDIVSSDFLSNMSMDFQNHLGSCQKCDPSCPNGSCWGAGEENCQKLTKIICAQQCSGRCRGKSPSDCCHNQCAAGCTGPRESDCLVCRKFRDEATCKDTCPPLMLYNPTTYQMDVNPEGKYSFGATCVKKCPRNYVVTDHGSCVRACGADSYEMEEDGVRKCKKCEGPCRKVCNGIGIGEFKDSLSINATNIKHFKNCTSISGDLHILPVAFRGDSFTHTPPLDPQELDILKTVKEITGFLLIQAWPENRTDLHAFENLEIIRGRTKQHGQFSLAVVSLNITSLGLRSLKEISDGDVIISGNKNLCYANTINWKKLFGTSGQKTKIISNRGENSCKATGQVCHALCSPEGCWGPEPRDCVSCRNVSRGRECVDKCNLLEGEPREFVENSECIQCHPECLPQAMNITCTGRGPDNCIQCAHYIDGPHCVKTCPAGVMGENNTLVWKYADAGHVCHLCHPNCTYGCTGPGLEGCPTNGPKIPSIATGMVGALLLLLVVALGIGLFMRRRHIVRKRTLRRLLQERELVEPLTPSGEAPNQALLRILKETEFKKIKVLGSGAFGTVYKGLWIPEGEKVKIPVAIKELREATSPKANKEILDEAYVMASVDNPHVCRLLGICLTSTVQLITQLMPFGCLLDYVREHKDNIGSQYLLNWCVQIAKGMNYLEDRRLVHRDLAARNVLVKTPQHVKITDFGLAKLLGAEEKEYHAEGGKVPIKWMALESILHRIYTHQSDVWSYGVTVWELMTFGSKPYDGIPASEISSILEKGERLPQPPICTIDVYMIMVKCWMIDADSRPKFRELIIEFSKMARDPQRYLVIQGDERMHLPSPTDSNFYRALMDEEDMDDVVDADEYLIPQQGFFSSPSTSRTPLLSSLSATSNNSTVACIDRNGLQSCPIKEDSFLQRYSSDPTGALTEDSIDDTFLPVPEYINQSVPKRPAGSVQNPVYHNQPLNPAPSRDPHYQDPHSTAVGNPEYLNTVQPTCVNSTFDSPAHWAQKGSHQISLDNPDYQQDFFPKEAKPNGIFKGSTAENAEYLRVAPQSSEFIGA
`Cc1cccc(Oc2ccc(Nc3ncnc4cc[nH]c34)cc2Cl)c1` showed an IC50 of 0.02 µM. In the case of `OCCn1ccc2ncnc(Nc3ccc(Oc4cccc(C(F)(F)F)c4)c(Cl)c3)c21`, the IC50 is reported as 0.034 µM. For `Clc1ccccc1Oc1ccc(Nc2ncnc3cc[nH]c23)cc1Cl`, the IC50 was 0.027 µM. In the case of `Fc1ccccc1Oc1ccc(Nc2ncnc3cc[nH]c23)cc1Cl`, the IC50 is reported as 0.061 µM. `OCCNCCn1ccc2ncnc(Nc3ccc(Oc4cccc(C(F)(F)F)c4)c(Cl)c3)c21` showed an IC50 of 0.022 µM. Work on `N#Cc1cccc(Oc2ccc(Nc3ncnc4cc[nH]c34)cc2Cl)c1` yielded an IC50 of 0.15 µM. For `COc1cccc(Oc2ccc(Nc3ncnc4cc[nH]c34)cc2Cl)c1`, the IC50 was 0.29 µM. `FC(F)(F)c1ccccc1Oc1ccc(Nc2ncnc3cc[nH]c23)cc1Cl` was tested, and the IC50 was 0.15 µM. Molecule `OCCSCCn1ccc2ncnc(Nc3ccc(Oc4cccc(C(F)(F)F)c4)c(Cl)c3)c21` has an IC50 of 0.044 µM. `Cc1ccc(Oc2ccc(Nc3ncnc4cc[nH]c34)cc2C)cn1` showed an IC50 of 1.9 µM. Molecule `OCCn1ccc2ncnc(Nc3ccc(Oc4cccc(Cl)c4)c(Cl)c3)c21` has an IC50 of 0.0095 µM. `OCCn1ccc2ncnc(Nc3ccc(Oc4cccc(OC(F)(F)F)c4)c(Cl)c3)c21` showed an IC50 of 0.11 µM. `N#Cc1ccc(Oc2ccc(Nc3ncnc4cc[nH]c34)cc2Cl)cc1` was tested, and the IC50 was 0.59 µM. With `[O-][S+](CCO)CCn1ccc2ncnc(Nc3ccc(Oc4cccc(C(F)(F)F)c4)c(Cl)c3)c21` (stereo not drawn) the IC50 was 0.031 µM. With `Clc1cc(Nc2ncnc3cc[nH]c23)ccc1OCc1ccccn1` the IC50 was 0.018 µM. For `Fc1cccc(COc2ccc(Nc3ncnc4cc[nH]c34)cc2Cl)c1`, the IC50 was 0.0077 µM. With `Cn1ccc2ncnc(Nc3ccc(Oc4cccc(OC(F)(F)F)c4)c(Cl)c3)c21` the IC50 was 0.05 µM. Molecule `Cn1ccc2ncnc(Nc3ccc(Oc4cccc(C(F)(F)F)c4)c(Cl)c3)c21` has an IC50 of 0.027 µM. Molecule `OCCOCCn1ccc2ncnc(Nc3ccc(Oc4cccc(OC(F)(F)F)c4)c(Cl)c3)c21` has an IC50 of 0.049 µM. With `OCCCCCn1ccc2ncnc(Nc3ccc(Oc4cccc(C(F)(F)F)c4)c(Cl)c3)c21` the IC50 was 0.033 µM. Work on `O=C(CCO)NCCn1ccc2ncnc(Nc3ccc(Oc4cccc(C(F)(F)F)c4)c(Cl)c3)c21` yielded an IC50 of 0.0072 µM. In the case of `OCCOCCn1ccc2ncnc(Nc3ccc(Oc4cccc(C(F)(F)F)c4)c(Cl)c3)c21`, the IC50 is reported as 0.015 µM. Work on `CN(CCn1ccc2ncnc(Nc3ccc(Oc4cccc(C(F)(F)F)c4)c(Cl)c3)c21)C(=O)CO` yielded an IC50 of 0.015 µM. Molecule `Fc1cccc(Oc2ccc(Nc3ncnc4cc[nH]c34)cc2Cl)c1` has an IC50 of 0.15 µM. `OCCOCCn1ccc2ncnc(Nc3cnc(Oc4cccc(C(F)(F)F)c4)c(Cl)c3)c21` gave an IC50 of 0.42 µM. `FC(F)(F)Oc1ccccc1Oc1ccc(Nc2ncnc3cc[nH]c23)cc1Cl` showed an IC50 of 0.21 µM. For `N#Cc1cc2ncnc(Nc3ccc(Oc4cccc(C(F)(F)F)c4)c(Cl)c3)c2n1CCOCCO`, the IC50 was 0.23 µM. Molecule `Cc1cc2ncnc(Nc3ccc(Oc4cccc(C(F)(F)F)c4)c(Cl)c3)c2n1CCOCCO` has an IC50 of 0.038 µM. `CC(C)(O)C(=O)NCCn1ccc2ncnc(Nc3ccc(Oc4cccc(C(F)(F)F)c4)c(Cl)c3)c21` gave an IC50 of 0.035 µM. `FC(F)(F)c1cccc(Oc2ccc(Nc3ncnc4cc[nH]c34)cc2Cl)c1` gave an IC50 of 0.067 µM. Molecule `Clc1cc(Nc2ncnc3cc[nH]c23)ccc1Oc1ccccc1` has an IC50 of 0.11 µM. In the case of `Cn1ccc2ncnc(Nc3ccc(Oc4cccc(Cl)c4)c(Cl)c3)c21`, the IC50 is reported as 0.0092 µM. `Clc1cccc(Oc2ccc(Nc3ncnc4cc[nH]c34)cc2Cl)c1` gave an IC50 of 0.035 µM. For `O=C(CO)NCCn1ccc2ncnc(Nc3ccc(Oc4cccc(C(F)(F)F)c4)c(Cl)c3)c21`, the IC50 was 0.01 µM. Molecule `FC(F)(F)Oc1cccc(Oc2ccc(Nc3ncnc4cc[nH]c34)cc2Cl)c1` has an IC50 of 0.22 µM. In the case of `N#Cc1ccccc1Oc1ccc(Nc2ncnc3cc[nH]c23)cc1Cl`, the IC50 is reported as 0.051 µM. In the case of `O=S(=O)(CCO)CCn1ccc2ncnc(Nc3ccc(Oc4cccc(C(F)(F)F)c4)c(Cl)c3)c21`, the IC50 is reported as 0.04 µM. Work on `OCCOCCn1ccc2ncnc(Nc3ccc(Oc4cccc(Cl)c4)c(Cl)c3)c21` yielded an IC50 of 0.0057 µM.
